The values below come from patent publication US20230051589A1, “COMPOUNDS AND COMPOSITIONS FOR TREATING CONDITIONS ASSOCIATED WITH NLRP ACTIVITY” (Novartis AG, priority 2018, published 2023).

Each structure is given as a SMILES string.

For orientation: IC50 means the concentration that gives 50% inhibition.

For one experiment, the system named is IL-1β production in PMA-differentiated THP-1 cells. Description: IL-1β production in PMA-differentiated THP-1 cells stimulated with gramicidin (hTHP-1 assay, 2% fetal bovine serum; Procedures 1-3). The class given is cell-based, human. Conditions: Homo sapiens, THP-1, hTHP-1 assay containing 2% fetal bovine serum, Table B2, class symbols; read-out: IC50. The gist of the method:
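PMA-primed THP-1 cells (20 ng/ml PMA, 16-18 h) in RPMI with 2% FBS were pre-incubated with compounds for 1 h, from 100 μM downward in 3-fold steps (0.37% DMSO final), then stimulated with 5 μM gramicidin for 2 h. IL-1β in the supernatant was quantified by HTRF.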
Take `NS(=O)(=NC(=O)Nc1c2c(cc3c1CCC3)CCC2)c1ccc(C2CCCN2)cc1` (single isomer, unassigned) [Example 648, (R,R) or (S,R)-N′-((1,2,3,5,6,7-hexahydro-s-indacen-4-yl)carbamoyl)-4-(pyrrolidin-2-yl) benzenesulfonimidamide]: the IC50 lay within 1 to 5 µM. `CN(C)C(c1ccc(S(N)(=O)=NC(=O)Nc2c3c(cc4c2CCC4)CCC3)cc1)C(F)(F)F` (single isomer, unassigned) [Example 664]: the IC50 is 0.2 to 1 µM.

The same experiment, now with this note: Homo sapiens, THP-1, hTHP-1 assay containing 2% fetal bovine serum, Table B2, given as bound; read-out: IC50.
`CC(OC(F)F)c1ccc(S(N)(=O)=NC(=O)Nc2c3c(cc4c2CCC4)CCC3)cc1` (single isomer, unassigned) [Example 643]: the IC50 was more than 30 µM. In the case of `CC(C)(O)c1cnc(S(N)(=O)=NC(=O)Nc2c3c(cc4c2C(O)CC4)CCC3)s1` (single isomer, unassigned) [Example 654, (S,R) or (S,S)-N′-((-3-hydroxy-1,2,3,5,6,7-hexahydro-s-indacen-4-yl)carbamoyl)-5-(2-hydroxypropan-2-yl)thiazole-2-sulfonimidamide], the IC50 is more than 30 µM.

As for `CC(C)(O)c1cnc(S(N)(=O)=NC(=O)Nc2c3c(cc4c2CCC4O)CCC3)s1` (single isomer, unassigned) [Example 655, (S,R) or (S,S)-N′-((1-hydroxy-1,2,3,5,6,7-hexahydro-5-indacen-4-yl)carbamoyl)-5-(2-hydroxypropan-2-yl)thiazole-2-sulfonimidamide], the IC50 was more than 30 µM.

As to `CN(C)C(c1ccc(S(N)(=O)=NC(=O)Nc2c3c(cc4c2CCC4)CCC3)cc1)C(F)(F)F` (single isomer, unassigned) [Example 663], the IC50 was more than 30 µM.

Still in this experiment, the particulars now being: hTHP-1 assay containing 2% fetal bovine serum, Table B2, class symbols; read-out: IC50.
`CC(O)(CO)c1cc(F)c(S(N)(=O)=NC(=O)Nc2c3c(c(C#N)c4c2CCC4)CCC3)s1` (single isomer, unassigned) [Example 630, (R,R) or (S,R)-N′-((8-cyano-1,2,3,5,6,7-hexahydro-s-indacen-4-yl)carbamoyl)-5-(1,2-dihydroxypropan-2-yl)-3-fluorothiophene-2-sulfonimidamide]: the IC50 is 0.008 to 0.04 µM. As to `CC(O)(CO)c1cc(F)c(S(N)(=O)=NC(=O)Nc2c3c(c(C#N)c4c2CCC4)CCC3)s1` (single isomer, unassigned) [Example 632], the half-maximal inhibitory concentration (IC50) was in the range of 5 to 30 µM. For `CC(O)(CO)c1cc(F)c(S(N)(=O)=NC(=O)Nc2c3c(c(C#N)c4c2CCC4)CCC3)s1` (single isomer, unassigned) [Example 633], the IC50 was 5 to 30 µM. Consider `CC(O)(CO)c1ncc(S(N)(=O)=NC(=O)Nc2c3c(c(C#N)c4c2CCC4)CCC3)s1` (single isomer, unassigned) [Example 634], for which the IC50 fell in the range of 0.2 to 1 µM. In the case of `CC(O)(CO)c1ncc(S(N)(=O)=NC(=O)Nc2c3c(c(C#N)c4c2CCC4)CCC3)s1` (single isomer, unassigned) [Example 636, (S,R) or (R,R)-N′-((8-cyano-1,2,3,5,6,7-hexahydro-s-indacen-4-yl)carbamoyl)-2-(1,2-dihydroxypropan-2-yl)thiazole-5-sulfonimidamide], the IC50 was 0.04 to 0.2 µM. As to `CC(O)(CO)c1ncc(S(N)(=O)=NC(=O)Nc2c3c(c(C#N)c4c2CCC4)CCC3)s1` (single isomer, unassigned) [Example 637, (R,R) or (S,R)-N′-((8-cyano-1,2,3,5,6,7-hexahydro-s-indacen-4-yl)carbamoyl)-2-(1,2-dihydroxypropan-2-yl)thiazole-5-sulfonimidamide], the half-inhibitory concentration (IC50) fell in the range of 0.2 to 1 µM.

With `CC(OC(F)F)c1ccc(S(N)(=O)=NC(=O)Nc2c3c(cc4c2CCC4)CCC3)cc1` (single isomer, unassigned) [Example 638], the IC50 lay in the range of 1 to 5 µM. As to `CC(OC(F)F)c1ccc(S(N)(=O)=NC(=O)Nc2c3c(cc4c2CCC4)CCC3)cc1` (single isomer, unassigned) [Example 640], the concentration for half-maximal inhibition (IC50) lay in the range of 1 to 5 µM. Still for that read-out and setting: with `CC(OC(F)F)c1ccc(S(N)(=O)=NC(=O)Nc2c3c(cc4c2CCC4)CCC3)cc1` (single isomer, unassigned) [Example 641] the figure was 1 to 5 µM.

In the case of `CC(OC(F)F)c1ccc(S(N)(=O)=NC(=O)Nc2c3c(cc4c2CCC4)CCC3)cc1` (single isomer, unassigned) [Example 642], the IC50 was 5 to 30 µM. Still for that read-out and setting: with `CN(C)C(c1ccc(S(N)(=O)=NC(=O)Nc2c3c(cc4c2CCC4)CCC3)cc1)C(F)F` (single isomer, unassigned) [Example 644, (R,R) or (S,R)-4-(-1-(dimethylamino)-2,2-difluoroethyl)-N′-((1,2,3,5,6,7-hexahydro-s-indacen-4-yl)carbamoyl) benzenesulfonimidamide] the figure was 0.2 to 1 µM; with `CN(C)C(c1ccc(S(N)(=O)=NC(=O)Nc2c3c(cc4c2CCC4)CCC3)cc1)C(F)F` (single isomer, unassigned) [Example 647, (S,R) or (R,R)-4-(1-(dimethylamino)-2,2-difluoroethyl)-N′-((1,2,3,5,6,7-hexahydro-s-indacen-4-yl)carbamoyl) benzenesulfonimidamide], 0.2 to 1 µM; with `NS(=O)(=NC(=O)Nc1c2c(cc3c1CCC3)CCC2)c1ccc(C2CCCN2)cc1` (single isomer, unassigned) [Example 650, (R,S) or (S,S)-N′-((1,2,3,5,6,7-hexahydro-s-indacen-4-yl)carbamoyl)-4-(pyrrolidin-2-yl) benzenesulfonimidamide], 5 to 30 µM. For the molecule `CC(C)(O)c1cnc(S(N)(=O)=NC(=O)Nc2c3c(cc4c2C(O)CC4)CCC3)s1` (single isomer, unassigned) [Example 651, (R,S) or (R,R)-N′-((3-hydroxy-1,2,3,5,6,7-hexahydro-s-indacen-4-yl)carbamoyl)-5-(2-hydroxypropan-2-yl)thiazole-2-sulfonimidamide], the IC50 was 1 to 5 µM. On to `CC(C)(O)c1cnc(S(N)(=O)=NC(=O)Nc2c3c(cc4c2C(O)CC4)CCC3)s1` (single isomer, unassigned) [Example 652, (R,R) or (R,S)-N′-((3-hydroxy-1,2,3,5,6,7-hexahydro-s-indacen-4-yl)carbamoyl)-5-(2-hydroxypropan-2-yl)thiazole-2-sulfonimidamide], for which the concentration for half-maximal inhibition (IC50) lay in the range of 1 to 5 µM. `CC(C)(O)c1cnc(S(N)(=O)=NC(=O)Nc2c3c(cc4c2C(O)CC4)CCC3)s1` (single isomer, unassigned) [Example 653, (S,S) or (S,R)-N′-((3-hydroxy-1,2,3,5,6,7-hexahydro-s-indacen-4-yl)carbamoyl)-5-(2-hydroxypropan-2-yl)thiazole-2-sulfonimidamide]: the IC50 is 5 to 30 µM. For the molecule `CC(C)(O)c1cnc(S(N)(=O)=NC(=O)Nc2c3c(cc4c2CCC4O)CCC3)s1` (single isomer, unassigned) [Example 657, (R,R) or (R,S)-N′-((1-hydroxy-1,2,3,5,6,7-hexahydro-5-indacen-4-yl)carbamoyl)-5-(2-hydroxypropan-2-yl)thiazole-2-sulfonimidamide], the IC50 was in the range of 1 to 5 µM. `CC(C)(O)c1cnc(S(N)(=O)=NC(=O)Nc2c3c(cc4c2CCC4O)CCC3)s1` (single isomer, unassigned) [Example 658, (R,S) or (R,R)-N′-((1-hydroxy-1,2,3,5,6,7-hexahydro-5-indacen-4-yl)carbamoyl)-5-(2-hydroxypropan-2-yl)thiazole-2-sulfonimidamide]: the IC50 lay in the range of 5 to 30 µM. `CN(C)C(c1ccc(S(N)(=O)=NC(=O)Nc2c3c(cc4c2CCC4)CCC3)cc1)C1CC1` (single isomer, unassigned) [Example 659]: the IC50 was in the range of 5 to 30 µM. On the same count and under the same terms, with `CN(C)C(c1ccc(S(N)(=O)=NC(=O)Nc2c3c(cc4c2CCC4)CCC3)cc1)C1CC1` (single isomer, unassigned) [Example 660] the figure was 0.2 to 1 µM. Turning to `CN(C)C(c1ccc(S(N)(=O)=NC(=O)Nc2c3c(cc4c2CCC4)CCC3)cc1)C1CC1` (single isomer, unassigned) [Example 661], the concentration for half-maximal inhibition (IC50) lay within 0.2 to 1 µM. Still for that read-out and setting: with `CN(C)C(c1ccc(S(N)(=O)=NC(=O)Nc2c3c(cc4c2CCC4)CCC3)cc1)C1CC1` (single isomer, unassigned) [Example 662] the figure was 0.2 to 1 µM.

The same experiment, now with this note: hTHP-1 assay containing 2% fetal bovine serum, Table B2, given as bound; read-out: IC50.
For `CN(C)C(c1ccc(S(N)(=O)=NC(=O)Nc2c3c(cc4c2CCC4)CCC3)cc1)C(F)F` (single isomer, unassigned) [Example 645, (S,S) or (R,S)-4-(-1-(dimethylamino)-2,2-difluoroethyl)-N′-((1,2,3,5,6,7-hexahydro-s-indacen-4-yl)carbamoyl) benzenesulfonimidamide], the IC50 was more than 30 µM. `CN(C)C(c1ccc(S(N)(=O)=NC(=O)Nc2c3c(cc4c2CCC4)CCC3)cc1)C(F)F` (single isomer, unassigned) [Example 646, (R,S) or (S,S)-4-(-1-(dimethylamino)-2,2-difluoroethyl)-N′-((1,2,3,5,6,7-hexahydro-s-indacen-4-yl)carbamoyl) benzenesulfonimidamide]: the IC50 is more than 30 µM. Consider `CC(C)(O)c1cnc(S(N)(=O)=NC(=O)Nc2c3c(cc4c2CCC4O)CCC3)s1` (single isomer, unassigned) [Example 656, (S,S) or (S,R)-N′-((1-hydroxy-1,2,3,5,6,7-hexahydro-5-indacen-4-yl)carbamoyl)-5-(2-hydroxypropan-2-yl)thiazole-2-sulfonimidamide], for which the IC50 is more than 30 µM. Regarding `CN(C)C(c1ccc(S(N)(=O)=NC(=O)Nc2c3c(cc4c2CCC4)CCC3)cc1)C(F)(F)F` (single isomer, unassigned) [Example 665, (S,S) or (R,S)-4-(1-(dimethylamino)-2,2,2-trifluoroethyl)-N′-((1,2,3,5,6,7-hexahydro-s-indacen-4-yl)carbamoyl) benzenesulfonimidamide], the IC50 is more than 30 µM.
